Assays:
Format in all cases: biochemical
[1] = biological target: T1, c-Met (Homo sapiens, UniProt P08581); assay: Kinase-Glo Plus luminescence kinase assay, single dose […] (weak, partial inhibition)
[2] = biological target: T2, CDK2 (Homo sapiens, UniProt P24941); assay: in vitro kinase assay, dose-response on CDK2/E (Kinase-Glo Plus luminescence described for CDK2/cyclin A2)
T2 construct: with cyclin E (IC50)

[3] = biological target: T1, c-Met; assay: Kinase-Glo Plus luminescence kinase assay, single dose […]

T1 sequence (P08581 25-307): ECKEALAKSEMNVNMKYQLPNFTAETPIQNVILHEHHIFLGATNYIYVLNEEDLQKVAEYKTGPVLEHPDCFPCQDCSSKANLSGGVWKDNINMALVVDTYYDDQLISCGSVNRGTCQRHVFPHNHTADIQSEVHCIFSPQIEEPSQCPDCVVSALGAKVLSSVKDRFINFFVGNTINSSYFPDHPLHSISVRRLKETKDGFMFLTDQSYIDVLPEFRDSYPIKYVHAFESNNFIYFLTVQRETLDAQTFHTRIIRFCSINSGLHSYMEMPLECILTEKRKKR
T1 sequence (P08581 308-1390): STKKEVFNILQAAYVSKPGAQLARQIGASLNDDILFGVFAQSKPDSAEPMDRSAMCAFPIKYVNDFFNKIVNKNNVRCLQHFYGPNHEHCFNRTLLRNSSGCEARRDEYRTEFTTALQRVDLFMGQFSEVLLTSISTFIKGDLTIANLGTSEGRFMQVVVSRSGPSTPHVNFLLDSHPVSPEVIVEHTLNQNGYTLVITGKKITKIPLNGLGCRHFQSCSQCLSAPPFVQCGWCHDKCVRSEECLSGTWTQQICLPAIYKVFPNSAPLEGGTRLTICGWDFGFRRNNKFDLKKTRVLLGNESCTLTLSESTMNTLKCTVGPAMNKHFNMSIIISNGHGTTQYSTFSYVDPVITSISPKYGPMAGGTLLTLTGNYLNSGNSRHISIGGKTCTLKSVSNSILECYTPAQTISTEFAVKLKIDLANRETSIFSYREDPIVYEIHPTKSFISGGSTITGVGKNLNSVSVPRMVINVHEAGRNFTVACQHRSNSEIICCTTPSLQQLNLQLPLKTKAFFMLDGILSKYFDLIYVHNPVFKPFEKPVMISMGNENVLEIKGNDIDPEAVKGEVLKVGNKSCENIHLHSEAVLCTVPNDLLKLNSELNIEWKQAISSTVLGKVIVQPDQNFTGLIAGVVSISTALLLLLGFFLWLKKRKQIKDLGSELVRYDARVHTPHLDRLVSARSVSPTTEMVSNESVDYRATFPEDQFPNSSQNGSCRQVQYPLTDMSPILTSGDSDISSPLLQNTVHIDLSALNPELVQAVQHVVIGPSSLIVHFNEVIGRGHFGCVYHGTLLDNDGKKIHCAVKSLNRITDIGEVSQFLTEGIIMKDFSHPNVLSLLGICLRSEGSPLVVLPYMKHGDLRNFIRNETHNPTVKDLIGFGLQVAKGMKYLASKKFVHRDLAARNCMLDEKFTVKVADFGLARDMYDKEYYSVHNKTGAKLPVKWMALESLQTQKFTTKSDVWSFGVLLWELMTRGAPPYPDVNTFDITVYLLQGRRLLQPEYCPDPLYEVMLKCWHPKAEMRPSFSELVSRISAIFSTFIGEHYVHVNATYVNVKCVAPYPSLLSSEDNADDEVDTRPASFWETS

COc1ccc2c(c1)/C(=N\NC(=O)Cc1c[nH]c3ccccc13)C(=O)N2 [HI 5]
inhibition at 10 µM [1]: 27%
IC50 [2]: 6.32 µM

CN[C@@H]1C[C@H]2O[C@@](C)([C@@H]1OC)n1c3ccccc3c3c4c(c5c6ccccc6n2c5c31)C(=O)NC4 [Staurosporine]
inhibition at 10 µM [3]: 100%
